Where a SMILES comes first, the peptide text is derived from it. The star is where a group is joined. Cbz = O=C(OCc1ccccc1)*

Assay type in all cases: cell-based
Experiment [1] concerns MYC-luciferase fusion protein. In words: Stability time course for 7 MYC-luciferase fusion cell lines, fused (tagged) luciferase. The conditions noted are these: for increase in MYC-luciferase fusion protein: all 7 cell lines. Here is the method:
(§1) Seven cell lines were used to measure the half life of the luciferases after blocking all protein synthesis with cyclohexamide. The decay observed for both fused luciferases (MYC-firefly and MYC-nanoluc; FIG. 12B) were compared to the decay observed for the unfused luciferases (renilla and firefly; FIG. 12A) using both the MYC-firefly:renilla and MYC-nanoluc:firefly cell lines 293T, U2OS and the MYC-firefly:renilla cell lines A549, H1299 and LS174T. […] MYC nanoluc half life of approximately 2 hours is longer than MYC-firefly half-life of less than 1 hour and closer to the half-life of untagged firefly. The balanced half-life of MYC-nanoluc and untagged firefly should reduce the number of artefact hits.
(§2) Seven MYC-luciferase reporter cell lines were used to measure changes in MYC-luciferase expression after blocking the proteasome with MG132. The expression of the unfussed renilla and firefly were unchanged for about 6 hours but decreased after 18 hours to a variable extent among cell lines (FIG. 13B).
(§3) Seven MYC-luciferase reporter cell lines were used to measure changes in MYC-luciferase expression after inhibition of ubiquitin dependent proteolysis with the neddylation inhibitor MLN-4924 (FIG. 14A-B).

For experiment [2], the system named is unfused luciferases (renilla and firefly). In words: Stability time course for 7 MYC-luciferase fusion cell lines, unfused (untagged) luciferase. The method, then:
as §1, §2, §3

Another experiment relates to fusion protein. In words: Western blot confirmation of fusion protein reduction by HSP90 inhibitors. (Immunoblotting shows a protein as a band on a membrane.)

As for `NS(=O)(=O)OC[C@@H]1C[C@@H](n2ccc3c(N[C@H]4CCc5ccccc54)ncnc32)C[C@@H]1O` [MLN-4924], the “increase in MYC-luciferase fusion protein” value in experiment [1] (MLN-4924, typically peaking after 6 hours of treatment) was at least 50%. Moreover, the “expression of unfused renilla and firefly” value in experiment [2] (MLN-4924, except for the 293T MYC-firefly:renilla cell line) was “minimally affected”.

Consider `CC(C)C[C@@H](C=O)NC(=O)[C@H](CC(C)C)NC(=O)[C@H](CC(C)C)NC(=O)OCc1ccccc1` [MG132] (Cbz-Leu-Leu-Leu-aldehyde), for which the “increase in luciferase signals of MYC-nanoluc” value in experiment [1] (MYC-nanoluc cell lines, MG132) is “about 4 fold”. For the same molecule, the “increase in MYC-luciferase fusion protein” value in experiment [1] (proteasome blocked with MG132, different time course) is recorded as at least 50%. The “expression of unfused renilla and firefly” value in experiment [2] (MG132, after 18 hours, variable extent among cell lines) is listed as “decreased”; in experiment [2] (MG132, for about 6 hours), “unchanged”.

As for `CC1(C)CC(=O)c2c(C(F)(F)F)nn(-c3ccc(C(N)=O)c(N[C@H]4CC[C@H](OC(=O)CN)CC4)c3)c2C1` [PF-04929113], in the experiment with fusion protein, the “knockdown of protein levels by western blot” value was “confirmed”.

For `COc1c(C)cnc(Cn2cnc3c(Cl)nc(N)nc32)c1C` [BIIB021], the “knockdown of protein levels by western blot” value with fusion protein was “confirmed”.

For the origin of these results see US20170306385A1, “METHODS FOR DISCOVERING THERAPEUTICS THAT ALTER THE STABILITY OF TARGET PROTEINS” (Dana-Farber Cancer Institute, Inc., priority 2014, published 2017).
